{"source": "patent EP0586960B1", "about": "“Xanthone derivatives, their preparation and use” (INVERNI DELLA BEFFA S.P.A., priority 1992, dated 1994)", "key": {"[1]": {"test_system": "hen osteoclasts", "test": "Bone resorption by hen osteoclast cultures with rat bone particles pre-labelled with tritiated proline", "type": "cell-based", "settings": "for inhibition at 10 µg/mL / inhibition at 25 µg/mL: Osteoclast, read-out: Inhibition % vs. controls", "procedure": "The activity of the new xanthones has been evaluated in vitro and in vivo. The effect on the bone resorption has been studied in vitro according to Zambonin-Zallone et al. Anatomy Embriology, 165, 405, 1982). The medullary bone, deriving from tibia and femur of hens fed with hypocalcic diet for 7 days was washed with MEM buffer, modified according to Joklik, at 4°C and filtered through a nylon filter with pore diameters of 112 microns. The obtained cell suspension was centrifuged at 1800 rpm for 5 minutes. The surnatant was discarded and the pellet treated with a 0.2% NaCl solution for 30 seconds to eliminate most of the present red blood cells. After restoration of the physiological osmolarity by means of 1.6% NaCl, the sample was centrifuged at 1800 rpm for 5 min. The obtained pellet, suspended again in the culture medium, was layered on 75% foetal calf serum in Joklik MEM for 45 min, so as to obtain a cell suspension enriched in osteoclasts. The fibroblasts were then filtered off by means of two filtrations on 112 µn nylon filters.\nThe so obtained cells were cultivated in a nucleotide-free medium, in the presence of 3 µg/ml of cytosine-1-D-β-arabinofuranoside to block the mitosis of proliferating cells. The culture medium contained 100 µg/ml streptomycin, 100 U.I./ml penicillin and 10% fetal calf serum. The cultures were incubated in humid atmosphere saturated with 5% CO₂ at 37°C and washed after 24 and 48 hours to remove non-adhering medullary cells.\nThe bone resorption was evaluated using the so prepared osteoclasts cultures cultured in the presence of rat bone particles, pre-labelled in vivo with trititated proline. During the resorption process, the collagen was degraded into fragments containing tritiated proline which was released in the culture medium; the resorption was calculated by measuring the radioactivity present in the medium after 24 and 48 hours of treatment.\nSimultaneously to each experiment, cell-free samples have also been prepared containing only bone fragments labelled in the culture medium to measure the aspecific release of radioactivity from the bone. This value was subtracted as background from the corresponding experimental value.\nThe compounds under examination were added to the culture medium at the concentrations of 10 and 25 µg/ml dissolved in DMSO. The inhibiting effect on the bone resorption of osteoclast of compound I (R = iPr, R₁ = OiPr), as an example, is reported on Table 1.\nThe significance was evaluated by the Student's t test versus the group treated with the solvent alone (control)."}, "[2]": {"test_system": "suckling rats under hypocalcic diet", "test": "Antiosteoporotic activity in suckling rats under hypocalcic diet (femur compacta thickness by microradiography)", "type": "in vivo, Wistar rats", "settings": "250 mg/kg/os", "procedure": "In vivo, the antiosteoporotic activity of the compound I (R = iPr, R₁ = OiPr) administered by the oral route, was evaluated on suckling rats under hypocalcic diet according to the method, slightly modified, disclosed by Lozupone et al., Bone, 9; 215, 1988). Female Wistar rats were allowed to delivery spontaneously.\nThe offsprings were pooled, weighed and re-distributed so as to obtain nests similar in weight and number.\nThe mothers during the suckling period were fed with an hypocalcic diet (Altromin DP 1031) and divided in two groups.\nOne group was treated orally with compound I (R = iPr, R₁ = OiPr) suspended in Methocel 0.5% at the dose of 250 mg/kg, whereas the second was treated with the vehicle alone (control group). The animals were sacrificed after 10 days from the start of milking.\nThe femur was taken from each animal and fixed, included in methacrylate and transversally cut. Two sections taken at the distal methaphysis and one from the medial methaphysis were microradiographed so as to measure the thickness of the compacta."}, "[3]": {"test": "Acute toxicity in the rat after oral and intraperitoneal administration", "design": "species or system Sprague-Dawley rats", "settings": "in vivo, 14 days observation, read-out: LD₅₀", "procedure": "The acute toxicity of the compound I (R = iPr; R₁ = OiPr) was evaluated in the rat after oral and intraperitoneal administration.\nSprague-Dawley rats of both sexes (5M + 5F) were used for each group. […] The compound has an LD₅₀ > 4000 mg/kg (LD₀) after oral administration and an LD₅₀ > 1000 mg/kg (LD₂₀) by intraperitoneal route."}, "[4]": {"settings": "change versus control group (Methocel 0.5%)"}, "[5]": {"settings": "change versus control group (Methocel 0.5%); R₁ = OiPr)"}, "[6]": {"settings": "femur, sacrificed after 10 days, n = 3, p < 0.05"}}, "note": "Read-outs that look alike come from different tables or passages of the source.", "data": [{"smiles": "CC(C)Oc1ccc2c(=O)c3ccc(OC(C)C)cc3oc2c1", "note": "[I (R=iPr; R₁=OiPr), 3,6-Di(isopropoxy)xanthone]", "values": [{"measurement": "Bone Res.", "setting": "[1]; Conc. 10 µg/ml, 24h, n = 4", "value": "32.1 ± 3.6", "unit": "µg"}, {"measurement": "Bone Res.", "setting": "[1]; Conc. 10 µg/ml, 48h, n = 4", "value": "50.2 ± 6.3", "unit": "µg"}, {"measurement": "Bone Res.", "setting": "[1]; Conc. 25 µg/ml, 24h, n = 4, p < 0.01", "value": "16.0 ± 1.0", "unit": "µg"}, {"measurement": "Bone Res.", "setting": "[1]; Conc. 25 µg/ml, 48h, n = 4, p < 0.01", "value": "21.0 ± 1.0", "unit": "µg"}, {"measurement": "inhibition at 10 µg/mL", "setting": "[1]; Conc. 10 µg/ml, 24h", "value": 27.5, "unit": "%"}, {"measurement": "inhibition at 10 µg/mL", "setting": "[1]; Conc. 10 µg/ml, 48h", "value": 30.9, "unit": "%"}, {"measurement": "inhibition at 25 µg/mL", "setting": "[1]; Conc. 25 µg/ml, 24h", "value": 63.8, "unit": "%"}, {"measurement": "inhibition at 25 µg/mL", "setting": "[1]; Conc. 25 µg/ml, 48h", "value": 71.1, "unit": "%"}, {"measurement": "activity on bone resorption", "setting": "[1]; at the concentrations of 10 and 25 µg/ml", "value": "dose dependent activity"}, {"measurement": "bone resorption inhibition in comparison to unexposed controls", "setting": "[1]; both at 24 and at 48 hours, concentration not stated in the sentence (10 and 25 µg/ml tested)", "value": "higher than 60%"}, {"measurement": "Compacta thinkness Diaphysis %", "setting": "[2]; [4]", "value": "+29%"}, {"measurement": "Compacta thinkness Methaphysis %", "setting": "[2]; [4]", "value": "+29%"}, {"measurement": "Compacta thinkness Diaphysis %", "setting": "[2]; [5]", "value": 29, "unit": "%"}, {"measurement": "Compacta thinkness Methaphysis %", "setting": "[2]; [5]", "value": 29, "unit": "%"}, {"measurement": "Compacta thinkness Diaphysis mm ± S.D.", "setting": "[2]; [6]", "value": "0.71±0.03", "unit": "mm"}, {"measurement": "Compacta thinkness Methaphysis mm ± S.D.", "setting": "[2]; [6]", "value": "0.40±0.12", "unit": "mm"}, {"measurement": "LD50 at 336 h", "setting": "[3]; ip, intraperitoneal route, printed with (LD₂₀)", "value": "> 1000", "unit": "mg/kg"}, {"measurement": "LD50 at 336 h", "setting": "[3]; oral administration, printed with (LD₀)", "value": "> 4000", "unit": "mg/kg"}]}]}
